Test [1] deals with SCD1 (Rattus norvegicus (Rat), UniProt P07308). Briefly: SCD1 enzymatic assay in rat liver microsomes (RLM). The test is classed as biochemical. As to conditions: rat liver microsomes; for inhibition at 1 µM: 1 μM test compound, read-out: % Inh.@ 1 μM. Here is the method:
Step 1: Preparation of Rat Liver Microsome (RLM):
Sprague Dawley rats from Charles River (200-225 g) underwent 2-cycle of fast-re-feeding (24-hour fast followed by 24-hour feeding with fat-free high carbohydrate diet, Reseach Diet, D00042802). The livers were removed and homogenized 1:4 (w/v) with pre-chilled, homogenizing buffer (10 mM Tris-HCl, 0.25 M sucrose, 1 mM EDTA, pH 7.4, supplemented with protease inhibitor cocktail). The homogenate was spun at 12,000×g for 15 min at 4° C. The supernatant was then re-centrifuged at 100,000×g for 60 min at 4° C. The pellet was re-suspended in 2 ml pre-chilled […] potassium phosphate buffer, pH 7.2, 10 mM EDTA at a concentration of 20 mg/ml. The resulting rat liver microsome (RLM) preparation was stored at −80° C.
Step 2: SCD1 Enzymatic Assay in RLM:
The SCD1 enzymatic assay was done in a volume of 50 μL using 10 μg of RLM (prepared as described above) in a 96-well polypropylene plate (enzyme reaction buffer contains 0.1 M K-Phosphate Buffer, 10 mM ATP, 6 mM MgCl2. 1 mM CoA, 1 mM β-NADH, 1.6 mM L-glutathione, 20 μM Stearoyl-CoA). Stearoyl-[9,10-^3H]-CoA (ARC-0390, 1 mCi/mL, 60 Ci/mmol,) was added at a final concentration of 2 μCi/mL. Test compound was then added to the reaction mixture at the selected concentration. After incubation at room temperature for 2 hours, 5 μL 1 N HCl was added to stop the reaction, followed by addition of 25 μL of 10% charcoal. The reaction mixture was then transferred to 96-well Multiscreen plate (Millipore, Cat#MSFCN6B50). […] The measured cpm values were fitted with Sigmoidal dose-response curve fit with Graphpad Prism.
A general note: Liver microsomes are vesicles of endoplasmic reticulum, rich in cytochrome P450 enzymes.

The target in test [2] is SCD1 (Homo sapiens (Human), UniProt O00767). Briefly: SCD1 13C-palmitic acid assay in A431 cells. Particulars: read-out: A431 cells 13C-PA IC50. It is filed as cell-based. On the procedure:
Human epithelial carcinoma A431 cells were seeded at 100,000 cells/well in complete growth medium (DMEM, Cellgro#10-013-CM, 4.5 g/L glucose, 10% FBS) in the presence of 0.05 mg/mL human insulin (Hannas Pharmaceutical Supply Co Inc, Humanlin 100 U/ml, 4 mg/ml) in 96-well tissue culture plate. 24 hr later, the cells were washed extensively with Assay Buffer (DMEM, Cellgro#10-013-CM, 4.5 g/L glucose, supplemented with 0.05 mg/mL Human Insulin and 0.1% Fatty Acid Free BSA). […] The cells were then returned to the tissue culture incubator (37° C. and 5% CO2) for 4 hrs. At the end of incubation, the cells were washed three times with 200 μL/well Hanks buffer (HBSS) and then stored at −20° C. until extraction.
For fatty acid extraction, after thawing out the plates, 40 μL of 1N KOH (containing 5 μM of internal standard 7,7,8,8-D4 palmitate) was added to each well and cell plates were incubated at 37° C. for 30 minutes. […] Acetonitrile (100 μL) was then added to extract fatty acids, followed by centrifugation at 3000 rpm for 10 minutes. 75 μL of extract was then transferred to a new glass vial in a 96-well cluster plate. 5 μL was injected for LC/MS analysis for detection of ^13C-palmitic acid and ^13C-palmitoleic acid. Formation of product ^13C-palmitoleic acid was determined as an index of SCD1 activity.
LC/MS analysis was performed as following. An Agilent 1100 Liquid Chromatographic System (Palo Alto, Calif.) consisting of a binary pump, a degasser and an autosampler was used. Separation of free fatty acids was performed on a Zorbax SB-C8 column (2.1×50 mm, particle size=3.5 μm). An isocratic elution was carried out with 10 mM triethylamine acetate in water: acetonitrile (3:7) at a flow rate of 0.3 mL/min. The column temperature was set at 30° C. and the sample injection volume was 5 μL. The LC run cycle was 4 min. A Micromass triple-quadrupole Quattro Micro mass […] (Waters, Beverly, Mass.) was interfaced with the LC system through a Z-spray electrospray ion source and was operated in the negative ion mode. Nitrogen was used as nebulizing gas, desolvation gas and cone curtain gas and argon was chosen as collision gas. The triple quadrupole MS source parameters were set as follows: capillary voltage, 3200V; cone voltage, 25V; exctractor 2V; source temperature, 120° C.; desolvation temperature, 300° C.; cone gas flow, 50 L/h; and desolvation gas flow, 700 L/h. […] MassLynx software version 4.0 was used for system control and data processing. The signal of U-^13C-palmitoleic acid was normalized to an internal standard.

The values that follow come from patent US9102669B2, “Substituted piperidinyl-pyridazinyl derivatives useful as SCD 1 inhibitors” (Janssen Pharmaceutica NV, priority 2011, dated 2015).

Values joined by “and” are separate entries in the source; they are usually repeats but may differ in a detail not shown here. Equal values may be shown once.

Chain of SCD1 (Rattus norvegicus (Rat), UniProt P07308) (P07308 whole entry): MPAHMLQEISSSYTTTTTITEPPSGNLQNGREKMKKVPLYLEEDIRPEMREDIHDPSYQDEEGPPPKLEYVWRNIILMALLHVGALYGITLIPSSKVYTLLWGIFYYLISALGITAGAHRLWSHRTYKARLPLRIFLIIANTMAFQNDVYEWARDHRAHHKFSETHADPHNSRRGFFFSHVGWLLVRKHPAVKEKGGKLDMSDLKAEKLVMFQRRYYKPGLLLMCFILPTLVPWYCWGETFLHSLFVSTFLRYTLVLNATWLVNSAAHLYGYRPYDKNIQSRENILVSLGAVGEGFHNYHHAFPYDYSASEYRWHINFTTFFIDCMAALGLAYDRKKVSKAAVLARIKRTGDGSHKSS
Chain of SCD1 (Homo sapiens (Human), UniProt O00767) (O00767 whole entry): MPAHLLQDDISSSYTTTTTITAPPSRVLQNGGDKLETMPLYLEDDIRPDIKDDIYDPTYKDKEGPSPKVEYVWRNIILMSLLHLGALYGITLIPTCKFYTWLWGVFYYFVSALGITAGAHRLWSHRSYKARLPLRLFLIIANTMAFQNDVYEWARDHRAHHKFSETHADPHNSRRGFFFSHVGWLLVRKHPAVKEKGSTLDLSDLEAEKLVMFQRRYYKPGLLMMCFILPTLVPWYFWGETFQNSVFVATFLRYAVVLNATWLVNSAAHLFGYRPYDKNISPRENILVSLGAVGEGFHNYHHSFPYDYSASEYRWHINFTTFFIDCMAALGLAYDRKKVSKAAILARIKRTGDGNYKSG

Turning to `Cc1cn(-c2ccc(N3CCC(N4CCCc5ccccc54)CC3)nn2)cn1` [compound 90, 1-(1-(6-(4-methyl-1H-imidazol-1-yl)pyridazin-3-yl)piperidin-4-yl)-1,2,3,4-tetrahydroquinoline], on SCD1 [1], the inhibition at 1 µM turned out to be 29%.
In the case of `CCCn1cc(-c2ccc(N3CCC(N4CCc5ccc(F)cc54)CC3)nn2)cn1` [Compound #79, 6-fluoro-1-(1-(6-(1-propyl-1H-pyrazol-4-yl)pyridazin-3-yl)piperidin-4-yl)indoline], on SCD1 [2], the IC50 amounted to 72 nM. For the same compound, on SCD1 [1], the inhibition at 1 µM stood at 97% and the IC50 is 22 nM.
Regarding `Cn1cc(-c2ccc(N3CCC(n4ccc5ccc(F)cc54)CC3)nn2)cn1` [Compound #63, 6-fluoro-1-(1-(6-(1-methyl-1H-pyrazol-4-yl)pyridazin-3-yl)piperidin-4-yl)-1H-indole], the inhibition at 1 µM on SCD1 [1] turned out to be 99%.
`Cc1nccn1-c1ccc(N2CCC(c3noc4ccc(F)cc34)CC2)nn1` [compound 93, 5-fluoro-3-(1-(6-(2-methyl-1H-imidazol-1-yl)pyridazin-3-yl)piperidin-4-yl)benzo[d]isoxazole]: the inhibition at 1 µM on SCD1 [1] turned out to be 41%.
Consider `Cc1nnc(-c2ccc(N3CCC(c4noc5ccc(F)cc45)CC3)nn2)o1` [compound 18, 5-fluoro-3-(1-(6-(5-methyl-1,3,4-oxadiazol-2-yl)pyridazin-3-yl)piperidin-4-yl)benzo[d]isoxazole], for which the IC50 worked out at 248 nM on SCD1 [2] and 315 nM against SCD1 [1].
As for `Cc1cnc(-c2ccc(N3CCC(c4noc5ccc(F)cc45)CC3)nn2)s1` [compound 28, 5-fluoro-3-(1-(6-(5-methylthiazol-2-yl)pyridazin-3-yl)piperidin-4-yl)benzo[d]isoxazole], the IC50 at SCD1 [2] was 9 nM and 16 nM. At SCD1 [1], the inhibition at 1 µM amounted to 94% and half-maximal inhibition (IC50) was put at 9 nM.
With `Fc1ccc2onc(C3CCN(c4ccc(-n5cccn5)nn4)CC3)c2c1` [compound 87, 3-(1-(6-(1H-pyrazol-1-yl)pyridazin-3-yl)piperidin-4-yl)-5-fluorobenzo[d]isoxazole], the inhibition at 1 µM on SCD1 [1] amounted to 45%.
For `Cn1cc(-c2ccc(N3CCC(n4ncc5cc(F)ccc54)CC3)nn2)cn1` [compound 73, 5-fluoro-1-(1-(6-(1-methyl-1H-pyrazol-4-yl)pyridazin-3-yl)piperidin-4-yl)-1H-indazole], the figures for the IC50 on SCD1 [2] and against SCD1 [1] were 262 nM and 145 nM, respectively. In addition, the inhibition at 1 µM on SCD1 [1] was found to be 86%.
On to `CNC(=O)Cn1cc(-c2ccc(N3CCC(N4CCc5ccc(F)cc54)CC3)nn2)cn1` [Compound #64, 2-(4-(6-(4-(6-fluoroindolin-1-yl)piperidin-1-yl)pyridazin-3-yl)-1H-pyrazol-1-yl)-N-methylacetamide], for which the IC50 at SCD1 [2] was 12 nM. In addition, on SCD1 [1], the inhibition at 1 µM was 102% and inhibition was half-maximal at 15 nM (IC50).
Take `Cn1cc(-c2ccc(N3CCC(N4CCc5cc(Cl)ccc54)CC3)nn2)cn1` [Compound #65, 5-chloro-1-(1-(6-(1-methyl-1H-pyrazol-4-yl)pyridazin-3-yl)piperidin-4-yl)indoline]: the IC50 at SCD1 [2] came out at 218 nM. Further, on SCD1 [1], the inhibition at 1 µM was 83% and half-maximal inhibition (IC50) required 181 nM.
As to `OCc1ccc(-c2ccc(N3CCC(N4CCc5ccc(F)cc54)CC3)nn2)cc1` [Compound #51], the IC50 at SCD1 [2] came to 8 nM. Moreover, at SCD1 [1], the inhibition at 1 µM is 96% and the IC50 worked out at 22 nM.
For the compound `Fc1ccc2onc(C3CCN(c4ccc(-c5cn[nH]c5)nn4)CC3)c2c1` [compound 26, 3-(1-(6-(1H-pyrazol-4-yl)pyridazin-3-yl)piperidin-4-yl)-5-fluorobenzo[d]isoxazole], the IC50 at SCD1 [2] stood at 112 nM. For the same compound, at SCD1 [1], the inhibition at 1 µM was 86% and 111 nM corresponded to half-maximal inhibition (IC50).
As for `CCOCCn1cc(-c2ccc(N3CCC(c4noc5ccc(F)cc45)CC3)nn2)cn1` [compound 75, 3-(1-(6-(1-(2-ethoxyethyl)-1H-pyrazol-4-yl)pyridazin-3-yl)piperidin-4-yl)-5-fluorobenzo[d]isoxazole], the IC50 on SCD1 [2] came out at 81 nM. In addition, at SCD1 [1], the inhibition at 1 µM was 98% and it took 21 nM to reach half-maximal inhibition (IC50).
For `Cn1cc(-c2ccc(N3CCC(n4nnc5ccccc54)CC3)nn2)cn1` [compound 48, 1-(1-(6-(1-methyl-1H-pyrazol-4-yl)pyridazin-3-yl)piperidin-4-yl)-1H-benzo[d][1,2,3]triazoie], on SCD1 [1], the inhibition at 1 µM turned out to be 60% and 939 nM corresponded to half-maximal inhibition (IC50).
On to `Cn1cc(-c2ccc(N3CCC(N4CCc5c(F)cccc54)CC3)nn2)cn1` [Compound #66, 4-fluoro-1-(1-(6-(1-methyl-1H-pyrazol-4-yl)pyridazin-3-yl)piperidin-4-yl)indoline], for which, at SCD1 [1], the inhibition at 1 µM was 57% and the IC50 stood at 678 nM.
In the case of `Cn1cc(-c2ccc(N3CCC(N4CCc5c(Cl)cc(Cl)cc54)CC3)nn2)cn1` [compound 68, 4,6-dichloro-1-(1-(6-(1-methyl-1H-pyrazol-4-yl)pyridazin-3-yl)piperidin-4-yl)indoline], on SCD1 [1], the inhibition at 1 µM came to 34%.
With `Cn1cc(-c2ccc(N3CCC(N4CCc5c(Cl)cccc54)CC3)nn2)cn1` [compound 67, 4-chloro-1-(1-(6-(1-methyl-1H-pyrazol-4-yl)pyridazin-3-yl)piperidin-4-yl)indoline], at SCD1 [1], the inhibition at 1 µM was found to be 32% and the IC50 is over 1000 nM.
As for `CC(=O)NNC(=O)c1ccc(N2CCC(c3noc4ccc(F)cc34)CC2)nn1` [Compound I2, N′-acetyl-6-(4-(5-fluorobenzo[d]isoxazol-3-yl)piperidin-1-yl)pyridazine-3-carbohydrazide], on SCD1 [1], the inhibition at 1 µM worked out at 27%.
On to `Cc1ccc(-c2ccc(N3CCC(c4noc5ccc(F)cc45)CC3)nn2)cc1` [compound 32, 5-fluoro-3-(1-(6-(p-tolyl)pyridazin-3-yl)piperidin-4-yl)benzo[d]isoxazole], for which, on SCD1 [1], the inhibition at 1 µM is 45% and the IC50 is over 1000 nM.
Regarding `NC(=O)c1ccc(-c2ccc(N3CCC(N4CCc5ccc(F)cc54)CC3)nn2)cc1` [compound 56, 4-(6-(4-(6-fluoroindolin-1-yl)piperidin-1-yl)pyridazin-3-yl)benzamide], on SCD1 [1], the inhibition at 1 µM stood at 28% and the IC50 is over 1000 nM.
Consider `Fc1ccc(-c2ccc(N3CCC(N4CCc5ccc(F)cc54)CC3)nn2)cc1` [Compound #53, 6-fluoro-1-(1-(6-(4-fluorophenyl)pyridazin-3-yl)piperidin-4-yl)indoline], for which, at SCD1 [1], the inhibition at 1 µM turned out to be 59% and the IC50 was found to be 777 nM.
On to `CC(C)(C)OC(=O)c1ccc(-c2ccc(N3CCC(N4CCc5ccc(F)cc54)CC3)nn2)cc1` [compound 55, tert-butyl 4-(6-(4-(6-fluoroindolin-1-yl)piperidin-1-yl)pyridazin-3-yl)benzoate], for which, at SCD1 [1], the inhibition at 1 µM amounted to 8% and the IC50 was over 1000 nM.
Take `Cn1cc(-c2ccc(N3CCC(n4c(C(F)(F)F)nc5ccccc54)CC3)nn2)cn1` [compound 41, 1-(1-(6-(1-methyl-1H-pyrazol-4-yl)pyridazin-3-yl)piperidin-4-yl)-2-(trifiuoromethyl)-1H-benzo[d]imidazole]: on SCD1 [1], the inhibition at 1 µM was 38% and the IC50 was over 1000 nM.

As a reminder, the IC50 is the concentration at which inhibition is half-maximal.
